ChEMBL document CHEMBL1201862, “PubChem BioAssay data set” (2004)
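Tested at 5 concentrations; 48 h exposure; 96-well plates; endpoints linearly interpolated, else capped at highest concentration. At the GI50, growth is halved.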 Calls of active or inactive are those of the source. Cut-off read from the data, not from the text of the source: active = GI50 up to about 1.1 µM and inactive = higher.

Assays:
Assay in all cases: NCI-60 cell line screen, 48 h
DLD-1 = system: DLD-1
HOP-18 = system: HOP-18
DMS-273 = system: DMS-273
M19-MEL = system: M19-MEL
DMS-114 = system: DMS-114
RXF 631 = system: RXF 631
XF498 = system: XF498
KM-20L2 = system: KM-20L2
SNB-78 = system: SNB-78

Measured: GI50

O=C1CN(C(=O)c2ccccc2)Cc2[nH]c3ccccc3c21
inactive: DLD-1 > 100 µM | HOP-18 > 100 µM | DMS-273 > 100 µM | M19-MEL > 100 µM | DMS-114 > 100 µM | RXF 631 > 100 µM | XF498 > 100 µM | KM-20L2 > 100 µM | SNB-78 > 100 µM
